# Like-named read-outs stand apart in the source and are kept apart here.
# Tests used:
# Format in all cases: cell-based
# Candida glabrata 05-62 = assay: Anti-fungal MIC assay
# Procedure: (§1) The first round of testing included Candida parapsilosis, Candida krusei, Paecilomyces variotii, Candida albicans, Aspergillus fumigatus, and Blastomyces dermatitidis. […] The second round of testing included Candida parapsilosis, Candida krusei, Candida albicans, Candida auris, Candida glabrata, Candida guilliermondii, and Cryptococcus neoformans.
# (§2) Stock solutions of the investigational agent were prepared at concentrations 100-times the highest concentration to be tested (6400 μg/ml) using dimethyl sulfoxide. Aliquots of the stock solutions were dispensed into polystyrene vials and stored at −20° C.
# (§3) The synthetic medium RPMI-1640 (with glutamine, without bicarbonate, and with phenol red) was used. The RPMI was buffered to a pH of 7.0+0.1 at 25° C. with 0.165M MOPS (3-[N-morpholino] propanesulfonic acid). Sterile U-shaped 96-well cell culture plates were used to perform the MIC assays. Dilutions of the DMSO stocks were prepared in RPMI to achieve 2× concentrations. After the dilutions of the working 2× investigational antifungal solutions were prepared, 0.1 ml of each concentration was transferred into a pre-specified column of the U-shaped 96-well cell culture plate using sterile pipettes.
# (§4) Fungal isolates were grown on Sabouraud dextrose agar (yeasts) or potato flake agar (filamentous fungi) and cells were collected after an appropriate period of growth for each species being evaluated (e.g., 48-72 hours for yeasts and 7 days for filamentous fungi). The fungi were suspended in sterile distilled water, and the densities of the fungal suspension were read using a spectrophotometer and adjusted to an appropriate optical density specific for each fungal species. The fungal suspension of each isolate was then diluted in RPMI. A sufficient volume of the test inoculum was prepared to directly inoculate 0.1 ml into each test well of the 96-well cell culture plate. Final inoculum ranges were dependent on the fungal species to be tested (e.g., 0.4×103 to 5×10^3 cells/ml for yeasts and dimorphic fungi, and 0.4×104 to 5×10^4 cells/ml for filamentous fungi). Each well of the 96-well cell culture plate containing the investigational antifungal compounds (0.1 ml volume) was inoculated on the day of the assay with 0.1 ml of the fungal suspension. Growth control wells contained 0.1 ml of fungal suspension and 0.1 ml of the growth medium without antifungal agents. The media control well contained 0.2 ml of the growth medium.
# (§5) The microdilution trays were incubated at 35° C. without agitation. […] One positive comparator/control was used for yeast (fluconazole) and one was used for filamentous fungi (voriconazole).
# Candida parapsilosis CP1 = assay: Anti-fungal MIC assay
# Procedure: as §1, §2, §3, §4, §5
# [1] = system: Candida guilliermondii Cgui2; assay: Anti-fungal MIC assay; conditions: Meyerozyma guilliermondii
# Procedure: as §1, §2, §3, §4, §5
# [2] = system: Cryptococcus neoformans USC 1597; assay: Anti-fungal MIC assay
# Procedure: as §1, §2, §3, §4, §5
# Candida parapsilosis CP2 = assay: Anti-fungal MIC assay; conditions: Lodderomyces parapsilosis
# Procedure: as §1, §2, §3, §4, §5
# Candida auris DI17-46 = assay: Anti-fungal MIC assay; conditions: Candidozyma auris
# Procedure: as §1, §2, §3, §4, §5
# Candida glabrata 05-761 = assay: Anti-fungal MIC assay
# Procedure: as §1, §2, §3, §4, §5
# [3] = system: Candida guilliermondii Cgui3; assay: Anti-fungal MIC assay; conditions: Meyerozyma guilliermondii
# Procedure: as §1, §2, §3, §4, §5
# Candida albicans CA6 = assay: Anti-fungal MIC assay
# Procedure: as §1, §2, §3, §4, §5
# Candida auris DI17-48 = assay: Anti-fungal MIC assay; conditions: Candidozyma auris
# Procedure: as §1, §2, §3, §4, §5
# [4] = system: Candida parapsilosis ATCC22019; assay: Anti-fungal MIC assay; conditions: Lodderomyces parapsilosis
# Procedure: as §1, §2, §3, §4, §5
# [5] = system: Paecilomyces variotii MYA-3630; assay: Anti-fungal MIC assay
# Procedure: as §1, §2, §3, §4, §5
# Candida glabrata CG3 = assay: Anti-fungal MIC assay; conditions: Nakaseomyces glabratus
# Procedure: as §1, §2, §3, §4, §5
# [6] = system: Cryptococcus neoformans CN3; assay: Anti-fungal MIC assay
# Procedure: as §1, §2, §3, §4, §5
# Candida parapsilosis CP3 = assay: Anti-fungal MIC assay; conditions: Lodderomyces parapsilosis
# Procedure: as §1, §2, §3, §4, §5
# Candida albicans CA5 = assay: Anti-fungal MIC assay
# Procedure: as §1, §2, §3, §4, §5
# [7] = system: Candida albicans ATCC90028; assay: Anti-fungal MIC assay
# Procedure: as §1, §2, §3, §4, §5
# Candida albicans CA3 = assay: Anti-fungal MIC assay
# Procedure: as §1, §2, §3, §4, §5
# Candida krusei ATCC6258 = assay: Anti-fungal MIC assay; conditions: Pichia kudriavzevii, second round (Table 6)
# Procedure: as §1, §2, §3, §4, §5
# Candida auris DI17-47 = assay: Anti-fungal MIC assay; conditions: Candidozyma auris
# Procedure: as §1, §2, §3, §4, §5
# [8] = system: Candida guilliermondii Cgui1; assay: Anti-fungal MIC assay; conditions: Meyerozyma guilliermondii
# Procedure: as §1, §2, §3, §4, §5
# [9] = system: Cryptococcus neoformans H99; assay: Anti-fungal MIC assay
# Procedure: as §1, §2, §3, §4, §5
# Candida albicans SC5314 = assay: Anti-fungal MIC assay
# Procedure: as §1, §2, §3, §4, §5
# Candida albicans 43001 = assay: Anti-fungal MIC assay
# Procedure: as §1, §2, §3, §4, §5
# [10] = system: Staphylococcus aureus ATCC 19636; assay: MIC assay against gram positive and antibiotic-resistant S. aureus; conditions: Staphylococcus aureus, ATCC19636
# Procedure: (§6) The MICs of vancomycin and linezolid were determined as quality controls and the MIC values of each strain met the acceptance criteria based on PDS historical reference data.
# (§7) The direct colony suspension method was used to prepare inoculated broth. Isolated colonies were taken from an 18-24 h culture plate. Optical density measurements (OD620 nm) were used to estimate the bacterial density. The test article, compound 3, and reference control stock solutions were prepared in 100% DMSO as 50× stock solutions. The 50× stock solutions were diluted by 2-fold serial titrations with 100% DMSO for a total of 11 concentrations. A 4 μL aliquot of each dilution was added to 196 μL of cation-adjusted Mueller Hinton Broth II medium seeded with the organism in wells of a 96 well plate. The final vehicle concentration was two percent (2%) in all assay wells. The final bacterial count was 2 to 8×10^5 CFU/mL. The final compound 3 concentration range was 16 to 0.016 μg/mL. Each test substance dilution was evaluated in duplicate on one test occasion. Vehicle-control and reference controls were used as blank and positive controls, respectively. Plates were incubated at 35-37° C. for 18 h. The test plates were visually examined and each well was visually scored for growth or complete inhibition of growth. The MIC value was recorded.
# [11] = system: Staphylococcus aureus VRS-2 (VRSA); assay: as above; conditions: Staphylococcus aureus, VRSA
# Procedure: as §6, §7
# [12] = system: Staphylococcus aureus ATCC 33591 (MRSA); assay: as above; conditions: Staphylococcus aureus
# Procedure: as §6, §7
# [13] = system: Staphylococcus aureus BAA-1556 (MRSA); assay: as above; conditions: Staphylococcus aureus
# Procedure: as §6, §7
# [14] = read-out: MIC, 50% growth inhibition
# [15] = read-out: MIC, 100% growth inhibition
smiles,measurement,setting,value
"OC(Cn1cncn1)(Cn1cncn1)c1ccc(F)cc1F [Fluconazole, reference compound]",MIC,"Candida glabrata 05-62; Nakaseomyces glabratus, 0562, read-out: MIC, 50% growth inhibition",> 64 µg/mL
same,MIC,"Candida glabrata 05-62; Nakaseomyces glabratus, 0562, read-out: MIC, 100% growth inhibition",> 64 µg/mL
same,MIC,Candida parapsilosis CP1; [14],0.5 µg/mL
same,MIC,Candida parapsilosis CP1; [15],1 µg/mL
same,MIC,[1]; [14],2 µg/mL
same,MIC,[1]; [15],4 µg/mL
same,MIC,"[2]; USC1597, read-out: MIC, 50% growth inhibition",4 µg/mL
same,MIC,"[2]; USC1597, read-out: MIC, 100% growth inhibition",8 µg/mL
same,MIC,Candida parapsilosis CP2; [14],0.5 µg/mL
same,MIC,Candida parapsilosis CP2; [15],0.5 µg/mL
same,MIC,"Candida auris DI17-46; DI1746, read-out: MIC, 50% growth inhibition",> 64 µg/mL
same,MIC,"Candida auris DI17-46; DI1746, read-out: MIC, 100% growth inhibition",> 64 µg/mL
same,MIC,"Candida glabrata 05-761; Nakaseomyces glabratus, 05761, read-out: MIC, 50% growth inhibition",8 µg/mL
same,MIC,"Candida glabrata 05-761; Nakaseomyces glabratus, 05761, read-out: MIC, 100% growth inhibition",32 µg/mL
same,MIC,[3]; [14],2 µg/mL
same,MIC,[3]; [15],4 µg/mL
same,MIC,Candida albicans CA6; [14],0.25 µg/mL
same,MIC,Candida albicans CA6; [15],> 64 µg/mL
same,MIC,"Candida auris DI17-48; DI1748, read-out: MIC, 50% growth inhibition",2 µg/mL
same,MIC,"Candida auris DI17-48; DI1748, read-out: MIC, 100% growth inhibition",16 µg/mL
same,MIC,"[4]; ATCC22019, C. parapsilosis ATCC 22019, second round (Table 6), read-out: MIC, 50% growth inhibition",2 µg/mL
same,MIC,"[4]; ATCC22019, Candida parapsilosis ATCC22019, first round (Table 5), read-out: MIC, 50% growth inhibition",1 µg/mL
same,MIC,"[4]; ATCC22019, read-out: MIC, 100% growth inhibition, C. parapsilosis ATCC 22019, second round (Table 6)",2 µg/mL
same,MIC,"[4]; ATCC22019, read-out: MIC, 100% growth inhibition, Candida parapsilosis ATCC22019, first round (Table 5)",2 µg/mL
same,MIC,"[5]; MYA3630, read-out: MIC, 50% growth inhibition",16 µg/mL
same,MIC,"[5]; MYA3630, read-out: MIC, 100% growth inhibition",32 µg/mL
same,MIC,Candida glabrata CG3; [14],0.5 µg/mL
same,MIC,Candida glabrata CG3; [15],64 µg/mL
same,MIC,[6]; [14],> 64 µg/mL
same,MIC,[6]; [15],> 64 µg/mL
same,MIC,Candida parapsilosis CP3; [14],1 µg/mL
same,MIC,Candida parapsilosis CP3; [15],1 µg/mL
same,MIC,Candida albicans CA5; [14],0.25 µg/mL
same,MIC,Candida albicans CA5; [15],> 64 µg/mL
same,MIC,[7]; [14],≤ 0.125 µg/mL
same,MIC,[7]; [15],> 64 µg/mL
same,MIC,Candida albicans CA3; [14],> 64 µg/mL
same,MIC,Candida albicans CA3; [15],> 64 µg/mL
same,MIC,"Candida krusei ATCC6258; ATCC6258, C. krusei ATCC 6258, read-out: MIC, 50% growth inhibition",16 µg/mL
same,MIC,"Candida krusei ATCC6258; ATCC6258, read-out: MIC, 100% growth inhibition, C. krusei ATCC 6258",32 µg/mL
same,MIC,"Candida auris DI17-47; DI1747, read-out: MIC, 50% growth inhibition",> 64 µg/mL
same,MIC,"Candida auris DI17-47; DI1747, read-out: MIC, 100% growth inhibition",> 64 µg/mL
same,MIC,[8]; [14],1 µg/mL
same,MIC,[8]; [15],4 µg/mL
same,MIC,[9]; [14],16 µg/mL
same,MIC,[9]; [15],32 µg/mL
same,MIC,Candida albicans SC5314; [14],0.25 µg/mL
same,MIC,Candida albicans SC5314; [15],> 64 µg/mL
same,MIC,Candida albicans 43001; [14],> 64 µg/mL
same,MIC,Candida albicans 43001; [15],> 64 µg/mL
CN[C@H](CC(C)C)C(=O)N[C@H]1C(=O)N[C@@H](CC(N)=O)C(=O)N[C@H]2C(=O)N[C@H]3C(=O)N[C@H](C(=O)N[C@H](C(=O)O)c4cc(O)cc(O)c4-c4cc3ccc4O)[C@H](O)c3ccc(c(Cl)c3)Oc3cc2cc(c3O[C@@H]2O[C@H](CO)[C@@H](O)[C@H](O)[C@H]2O[C@H]2C[C@](C)(N)[C@H](O)[C@H](C)O2)Oc2ccc(cc2Cl)[C@H]1O [Vancomycin],MIC,[10],0.5 µg/mL
same,MIC,[11],> 64 µg/mL
same,MIC,[12],0.5 µg/mL
same,MIC,[13],0.5 µg/mL

# Reference: patent publication US20230391727A1, “ANALOGUES OF PENTAMIDINE AND METHODS FOR TREATING INFECTIONS” (Auransa Inc., priority 2020, published 2023)
